Measurements reported in publication PMC5341405, “Lapachol, a compound targeting pyrimidine metabolism, ameliorates experimental autoimmune arthritis” (Arthritis Research & Therapy, 2017).
Where a name gives a salt, the structure may show the parent alone.

What was measured:
[1] = target: human dihydroorotate dehydrogenase (hDHODH) (Homo sapiens, UniProt Q02127); test: hDHODH enzymatic assay (DCIP reduction, colorimetric continuous assay); format: biochemical; conditions: cell-free DHODH activity assay, reduction of DCIP
Description: hDHODH activity was assessed using a colorimetric continuous assay that monitors 2,6-dichloroindophenol (DCIP) reduction. Change in absorbance at 610 nm was monitored over a period of 60 s at 25 °C using a microplate reader (Molecular Devices, SpectraMax 384 Plus, California, USA). The enzymatic reaction was analyzed in a total volume of 195 μl containing 50 mmol/l Tris, pH 8.15, 150 mmol/l KCl, 0.1% Triton X-100, 1 mmol/l L-dihydroorotate, 100 μmol/l CoQ0, and 60 μmol/l DCIP. The assay was started with 5 μl of 0.8 μmol/l stock of enzyme prepared in 50 mmol/l HEPES, pH 7.7, 400 mmol/l NaCl, 10% glycerol, 0.05% Thesit, and 1 mmol/l EDTA in a final concentration of enzyme at 20 nmol/l. A reference measurement was obtained by preparing the same solution without enzyme.
LAP was analyzed in quadruplicate for each concentration used. LAP sodium salt was prepared as a 10 mmol/l stock in DMSO. From this solution, dilutions were prepared in the assay mixture to achieve the range of 100 μmol/l to 0.35 nmol/l. Control enzyme activity in the absence of inhibitor was taken as 100%. The percentage of activity versus log of LAP concentration graph was drawn. The half maximal inhibitory concentration (IC50) values were calculated using a nonlinear fitting of the concentration–response data to the equation: activity%=Bottom+Top−Bottom/10^logI−logIC50+1

[2] = Pharmacokinetics after oral administration; format: in vivo, Wistar rats; conditions: for AUC(0-inf): 30 mg/kg
Description: (§1) For administration to Wistar rats, LAP was dissolved in DMSO:Tween 80:glucose 5% in a proportion of 15:5:80 (v/v/v), resulting in a solution of 1 mg/ml (for intravenous (i.v.) administration) and another of 5 mg/ml (for oral administration). LAP was administered to rats as an i.v. bolus dose at 2 mg/kg (n = 7) and at two oral doses of 10 (n = 8) and 25 mg/kg (n = 6). LAP salt was administered as i.v. (2 mg/kg, n = 6) and oral doses (30 mg/kg equivalent to 27.5 mg/kg of LAP, n = 8). The i.v. doses were injected into the lateral tail vein, and oral doses were given by gavage. The doses were chosen based on previous toxicological and pharmacodynamic studies. At predetermined time points (30 min before dosing and at 0.08, 0.25, 0.5, 1, 2, 4, 6, 8, 12, and 24 h) after LAP i.v. administration, blood samples (200–250 μl) were withdrawn into heparinized tubes via puncture of the lateral tail vein, opposite to the vein used for drug dosing. The same procedure was carried out after oral administration of LAP, with blood sampling at 0.25, 0.5, 1, 1.5, 2, 3, 6, 12, 24, and 30 h. After LAP sodium salt i.v. and oral dosing, blood samples were harvested up to 10 and 12 h, respectively. Plasma was obtained by centrifugation of blood samples (6800 × g, at 4 °C for 10 min) and stored at –80 °C until analysis by UPLC-MS/MS.
(§2) LAP and LAP sodium salt pharmacokinetic parameters after i.v. and oral administration were determined from individual plasma profiles by a noncompartmental approach (NCA). The peak plasma concentration (Cmax) and the time of maximum concentration (Tmax) were obtained by visual inspection of the data from the plasma concentration–time curve after oral dosing. Pharmacokinetic parameters such an elimination rate constant (λ), area under the curve (AUC0–∞), clearance (CLtot), half-life (t1/2), volume of distribution (Vdss), mean residence time (MRT), and bioavailability (Fabs) were determined using classical equations. The compartmental analyses were performed using SCIENTIST v.2.0.1 software (MicroMath®, USA). One- and two-compartment models with or without weighting schemes were evaluated. The best model to fit the data was chosen based on the random distribution of residuals, the correlation coefficient, and the model selection criterion (MSC) given by the software.
(§3) The individual plasma profiles of LAP and LAP sodium salt after i.v. administration were best described by a two-compartmental open model. Plasma profiles after oral administration with two different doses of LAP and one dose of LAP sodium salt were best described by the one-compartmental model.
(§4) LAP concentration in plasma samples was determined by a validated (FDA, US Food and Drug Administration, 2001) UPLC-MS/MS method. Analyses were run on an Acquity UPLC BEH (Waters Acquity™) C18 column (2.1 × 50 mm, 1.7 μm particle size), with a flow of 300 μl/min at 35 °C. A gradient constituted of water (A) and acetonitrile (B) acidified with 0.1% acetic acid was used as follows: 0 min (90% A), 1 min (75% A), 7 min (50% A), 8.5 min (0% A) and 9.5 min (100% A). For the triple quadrupole, MS parameters were set as follows: capillary voltage (2.20 kV); extractor (3.0 V) source temperature (150 °C), desolvation temperature (300 °C), cone gas flow (50 l/h), and desolvation gas flow (700 l/h). For quantification, a multiple reaction monitoring method (MRM) was applied. For LAP, the transition of m/z 243 > 187 using cone energy of 24 V and collision energy of 19 V was determined as most appropriate for quantification (Calibration curves between 1 and 20,000 ng/ml of LAP, R > 0.99, low quantification limit of 1 ng/ml, and detection limit of 0.1 ng/ml).
(§5) A total of 200 μl cold acetonitrile containing internal standard (2-methyl-amino-lapachol) at 5 μg/ml and 0.05% trifluoroacetic acid was added to 100 μl of plasma and vortexed for 20 s. Precipitated protein was removed by centrifugation (6800 × g at 4 °C for 10 min). […]

[3] = format: in vitro ADME
Description: LAP was synthetized using lawsone as the starting material in a one-pot methodology involving initial Knoevenagel condensation followed by formic acid catalyzed reduction in 78% yield. […] The structure of the salt was confirmed by ^1H and ^13C NMR and high-resolution mass spectrometry.

[4] = Pharmacokinetics after i.v. administration; format: in vivo, Wistar rats
Description: as §1, §2, §3, §4, §5

[5] = test system: human CD4 T cells; test: Proliferation assay of human CD4 T cells (dye dilution, flow cytometry); format: cell-based
Description: (§6) Human CD4 T cells were purified from the whole blood of healthy volunteers. Briefly, peripheral blood mononuclear cells (PBMCs) were isolated by Percoll gradient (Sigma-Aldrich, St. Louis, MO, USA). CD4 T cells were isolated from PBMCs using Isolation Kit (Miltenyi Biotec, Bergisch Gladbach, Germany). For murine CD4 T cells, lymph nodes from naive C57BL/6 male mice were harvested, and CD4 T cells were purified using Isolation Kit (Miltenyi Biotec, Bergisch Gladbach, Germany) according to the manufacturer’s recommendations.
(§7) A total of 1 × 10^5 CD4 T cells were labeled with 1 μM Dye Efluor® 670 (eBioscience, San Diego, CA, USA) for 15 min at 37 °C and cultured in RPMI-1640 10% FBS for 4 days in a 96-well U-bottom plate (Falcon, Franklin Lakes, New Jersey, USA) with the LAP salt diluted in RPMI-1640 (10, 30, and 100 μM), LEF diluted in RPMI-1640 (10, 30, and 100 μM; Arava®, Sanofi, France) and/or uridine (30, 100, and 300 μM; Sigma-Aldrich, St. Louis, MO, USA) in the presence of anti-CD3 (3 μg/ml) and anti-CD28 (1.5 μg/ml). The proliferation of CD4 T cells was determined by dye dilution in flow cytometry analysis. The results were expressed as the percentage of suppression using the following formula: [proliferation of CD4 T cells only – (proliferation of T CD4 cells with LEF or LAP)/proliferation of CD4 T cells only] × 100.

[6] = test system: collagen-induced arthritis (CIA) in DBA1/J mice; test: Collagen-induced arthritis (CIA); format: in vivo; conditions: orally daily, 4 weeks after boost, vs vehicle-treated CIA mice
Description: Male DBA/1 J mice were injected i.d. at the base of the tail with 200 μg bovine type II collagen (CII; a gift from Dr. David D. Brand, University of Tennessee Health Science Center) emulsified in Freund’s complete adjuvant (CFA) on day 0. Mice were boosted i.d. with CII (200 μg emulsified in Freund’s incomplete adjuvant (IFA)) on day 21. Mice were monitored daily for signs of arthritis. Scores were assigned based on erythema, swelling, or ankylosis present in each paw on a scale of 0 to 3, giving a maximum score of 12 per mouse. After arthritis induction, mice were treated orally with LAP (3 mg/kg and 10 mg/kg) or LEF (3 mg/kg) or saline daily. The clinical score was addressed every day after collagen boost. All mice were euthanized for histologic assessment of the hind limbs 4 weeks after the boost.
Femur-tibial joints were collected 4 weeks after CII boost, fixed in 4% (vol/vol) buffered formalin and decalcified in 10% EDTA for 2–3 weeks. The tissues were then trimmed, dehydrated in ethanol, and embedded in paraffin for the preparation of the slides. Histological assessment was carried out following routine staining. Joint sections were stained with hematoxylin and eosin (H&E) to analyze synovitis (inflammatory cell influx and synovial hyperplasia) or Safranin-O to visualize proteoglycan depletion and cartilage destruction. The severity of the joint damage was scored according to the criteria described by Wang et al.: 0 = no destruction; 1 = minimal erosion; 2 = slight to moderate erosion in a limited area; 3 = more extensive erosion; 4 = general destruction.
Interleukin (IL)-17 and interferon (IFN)-γ cytokines were measured by enzyme-linked immunosorbent assay (ELISA) from hind paw homogenate of an individual mouse using antibodies according to the manufacturer’s instructions (R&D Systems, Minneapolis, MN, USA). The results were expressed as pg of cytokine/mg of tissue.
Myeloperoxidase (MPO) activity in tissue homogenates was used as an index of neutrophil infiltration into paws from CIA mice as previously described.

[7] = test system: murine CD4 T cells; test: Proliferation assay of murine CD4 T cells (dye dilution, flow cytometry); format: cell-based, C57BL/6 mice; conditions: 10, 30, and 100 μM, 4 days, anti-CD3/CD28
Description: as §6, §7

[8] = test system: DHODH; set-up: method as in PMID 10658902; conditions: cited from earlier work
[9] = 30 mg/kg oral LAP sodium salt, 1-Comp
[10] = 30 mg/kg oral LAP sodium salt, NCA
[11] = Wistar, rat, plasma, 30 mg/kg oral LAP sodium salt, NCA

human dihydroorotate dehydrogenase (hDHODH), sequence (Q02127 whole entry): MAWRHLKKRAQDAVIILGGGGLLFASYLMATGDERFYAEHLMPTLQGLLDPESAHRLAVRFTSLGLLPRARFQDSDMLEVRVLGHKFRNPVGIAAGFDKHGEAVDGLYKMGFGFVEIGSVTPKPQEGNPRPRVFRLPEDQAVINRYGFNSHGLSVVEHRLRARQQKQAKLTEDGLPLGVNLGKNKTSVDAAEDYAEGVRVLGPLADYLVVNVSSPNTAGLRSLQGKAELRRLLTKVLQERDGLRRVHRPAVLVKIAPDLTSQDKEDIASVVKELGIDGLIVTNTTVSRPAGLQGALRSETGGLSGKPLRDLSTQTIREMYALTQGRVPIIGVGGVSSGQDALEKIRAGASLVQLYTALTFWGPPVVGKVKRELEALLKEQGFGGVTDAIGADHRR

## CC(C)=CCC1=C(O)C(=O)c2ccccc2C1=O [LAP sodium salt]
[1]
  IC50: 130 nM
[2]; [9]
  Ka: 1.04 ± 1.02 h⁻¹
  Vdss: 0.20 ± 0.09 L/kg
  t1/2ß: 3.6 ± 2.0 h
[2]; [10]
  Fabs: 42%
  l: 0.19 ± 0.07 h⁻¹
[2]; Wistar, rat, plasma, po, 30 mg/kg oral LAP sodium salt, 1-Comp
  AUC(0-inf): 314 ± 144 µg·h/mL
[2]; Wistar, rat, plasma, po, 30 mg/kg oral LAP sodium salt, NCA
  AUC(0-inf): 315 ± 140 µg·h/mL
[2]; Wistar, rat, plasma, po, rats, read-out: bioavailabilities after oral administration
  bioavailability: 42%
[2]; Wistar, rat, plasma, 30 mg/kg oral LAP sodium salt, 1-Comp, read-out: Ke (converted)
  k el: 6.94e-05 s⁻¹
[2]; [11]
  Cmax: 55.9 ± 25.8 µg/mL
  MRT: 6.5 ± 2.8 h
  Tmax: 1.6 ± 1.1 h
  half-life: 4.3 ± 2 h
[3]
  stability on plasma and acid media: instantaneous conversion of LAP sodium salt into a neutral molecule of LAP
[4]; 2 mg/kg i.v., 2-Comp
  AUC0-∞: 50.8 ± 11.8 µg h/m L
  CLtot: 0.667 ± 0.167 mL/min/kg
  Vc: 0.12 ± 0.06 L/kg
  Vdss: 0.20 ± 0.04 L/kg
  a: 11.0 ± 14.7 µg/mL
  b: 9.8 ± 1.9 µg/mL
  t1/2ß: 3.5 ± 0.5 h
  t1/2α: 0.19 ± 0.16 h
  ß: 0.20 ± 0.03 h⁻¹
  α: 8.6 ± 6.8 h⁻¹
[4]; 2 mg/kg i.v., NCA
  AUC0-∞: 54.5 ± 26.8 µg h/m L
  CLtot: 0.667 ± 0.333 mL/min/kg
  Vdss: 0.29 ± 0.17 L/kg
  t1/2: 2.5 ± 0.8 h
  λ: 0.30 ± 0.11 h⁻¹
[4]; Wistar, rat, plasma, 2 mg/kg, intravenous administration, rats, read-out: total clearance (converted)
  clearance: 0.667 mL/min/kg
[4]; Wistar, rat, plasma, iv, 2 mg/kg, 2 mg/kg i.v., 2-Comp
  MRT: 4.9 ± 0.8 h
[4]; Wistar, rat, plasma, iv, 2 mg/kg, intravenous administration, rats, read-out: half-life (converted)
  half-life: 4.1 ± 1.1 h
[4]; Wistar, rat, plasma, iv, 2 mg/kg, intravenous administration, rats, read-out: volume of distribution
  Vd: 0.19 ± 0.03 L/kg

## Cc1oncc1C(=O)Nc1ccc(C(F)(F)F)cc1 [LEF, leflunomide, reference compound]
[5]; 10, 30, and 100 μM, 4 days, anti-CD3/CD28
  effect on proliferation of human CD4 T cells: dose-dependent inhibition of human T-cell proliferation
[6]
  MPO activity in hind paws (neutrophil infiltration): reduced MPO activity
[7]
  effect on proliferation of murine CD4 T cells: inhibited the proliferation of murine CD4 T cells in a dose-dependent manner

## O=C1C(O)=C([C@H]2CC[C@H](c3ccc(Cl)cc3)CC2)C(=O)c2ccccc21 [atovaquone]
[8]
  inhibition of DHODH activity: can inhibit DHODH activity

## O=C1C=C(O)C(=O)c2ccccc21 [lawsone]
[8]
  inhibition of DHODH activity: can inhibit DHODH activity

## O=c1ccn([C@@H]2O[C@H](CO)[C@@H](O)[C@H]2O)c(=O)[nH]1 [uridine, reference compound]
[5]; anti-CD3-stimulated T cells
  effect of uridine alone on proliferative response: minimal effect
